This is an account of results in patent publication EP3705574A1, “SPLIT LUCIFERASE, AND HIGHLY SENSITIVE VITAMIN D RECEPTOR LIGAND DETECTION METHOD USING SAME” (Public University Corporation Toyama Prefectural University, priority 2017, dated 2019).

Some results are limits rather than exact numbers.

Data set [1] has as its system double molecular type N29+N31 biosensor (6×His LBD(121-427 aa)-SmBiT + 6×His LgBiT-NHPMLMNLLKDN). Here is the method:
Several of the obtained E.coli colony were selected, inoculated into 2 mL of LB liquid culture medium (containing 100 µg/mL of ampicillin), and shaking culture was performed at 37°C and 200 rpm for 12 hours. 2 mL of E.coli solution was succeeded in 500 mL of LB liquid culture medium (containing 100 µg/mL of ampicillin) and cultivated at 37°C to OD600=0.4, and then 1 mM isopropyl-1-thio-β-D-galactopyranoside [IPTG (NACALAI TESQUE, INC.) was added and cultivated at 15°C for 3 hours to express proteins. After cultivation, centrifugal separation was performed at 4°C, 5000×g for 10 minutes to collect bacterial cells. Bacterial bodies were suspended in the solution containing 25 mM Tris-HCl, pH 7.4, 10 mM DTT, and protease cocktails of inhibitor (NACALAI TESQUE, Inc.) and then ultrasonic crushing was performed in ice for 15 sec×7 times. Thereafter, centrifugal separation was performed at 4°C, 20,000×g for 30 minutes, and supernatant was collected to obtain biosensor protein solutions N29, N30, N31 and N32.
Thereafter, 10 µl of light emission substrate solution (Nano-Glo Live Cell Assay System, Promega) was added and measured. Ethanol (EtOH) brought in, which is used as a solvent for VDR ligand, was at a final concentration of 1%. Microplate reader Infinite 200 Pro (TECAN) was used as an instrument for measuring light emission.
After plating double molecular type N29+N31 to 96 well plate, 0-50 nM of 25(OH)D3 was added and incubated for 10 minutes at room temperature.
After plating double molecular type N29+N31 to 96 well plate, 0-10 nM of 25(OH)D3 was added and incubated for 10 minutes at room temperature.
After plating double molecular type N29+N31 to 96 well plate, 0-10000 nM calcitroic acid was added and incubated for 10 minutes at room temperature.

Data set [2] has as its target T1, LucN-NHPMLMNLLKDN-(GGGGS)×3-LBD-LucC biosensor (split firefly luciferase, LXXLL sequence, hVDR LBD 121-427 aa) (Homo sapiens, UniProt P11473).
T1 construct: expressed in transfected cells; host or cells: COS-7
T1 sequence (P11473 121-427): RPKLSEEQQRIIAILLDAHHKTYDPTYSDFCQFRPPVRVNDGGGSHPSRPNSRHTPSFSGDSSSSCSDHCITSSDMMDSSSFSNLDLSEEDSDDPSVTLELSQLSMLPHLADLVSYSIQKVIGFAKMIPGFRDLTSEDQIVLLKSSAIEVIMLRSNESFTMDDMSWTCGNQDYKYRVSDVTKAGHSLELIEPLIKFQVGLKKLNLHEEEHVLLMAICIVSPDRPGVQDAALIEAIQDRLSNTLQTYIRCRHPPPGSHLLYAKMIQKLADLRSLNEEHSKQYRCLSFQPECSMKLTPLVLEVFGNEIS
Briefly: Luciferase light emission in COS-7 cells expressing single molecular type biosensor. The data set is classed as cell-based. Conditions: 0-1000 nM added, relative light intensity after 90 minutes.

For the compound `C=C1/C(=C\C=C2/CCC[C@]3(C)[C@@H]([C@H](C)CC(=O)O)CC[C@@H]23)C[C@@H](O)C[C@@H]1O` [calcitroic acid], the “concentration required for increasing light emission” value in data set [1] (0-10000 nM calcitroic acid, 10 minutes after light emission substrate solution, in vitro) is at least 10 nM. Besides, in data set [1] (stated with the N29+N31 biosensor evaluation), the “VDR affinity relative to 1α,25(OH)2D3” value is reported as 1/1000.

Consider `C=C1CC[C@H](O)C/C1=C/C=C1\CCC[C@]2(C)[C@@H]([C@H](C)CCCC(C)(C)O)CC[C@@H]12` [25(OH)D3, 25 hydroxyvitamin D3], for which, in data set [2], the “concentration reaching maximal light emission” value was found to be 1000 nM. Further, the Detection limit in data set [1] (0-10 nM 25(OH)D3, 10 minutes after light emission substrate solution, in vitro) is listed as 1 pM. The “concentration reaching maximal increase of light emission” value in data set [1] (0-50 nM 25(OH)D3, in vitro) is recorded as “around 50 nM”. Also, the “relative change of light emission” value in data set [1] (nanoluciferase biosensor protein, 10 min, 1 pM) was “about 1.5 fold”.
